Test results taken from the supplement of paper PMC10307832.

Experiments:
Assay in all cases: relative viability (nuclei count vs DMSO), 5 days (fraction); higher = more cells survive
Selisistat + Tozasertib = compound: C1CC(C2=C(C1)C3=C(N2)C=CC(=C3)Cl)C(=O)N [Selisistat] + Cc1cc(Nc2cc(N3CCN(C)CC3)nc(Sc3ccc(NC(=O)C4CC4)cc3)n2)n[nH]1 [Tozasertib] (partner 0.1 µM)
How it was run: (§1)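 Lung cancer cell lines in 1536-well plates got either a single drug or a fixed anchor-drug dose together with five library-drug doses (not always all listed) in √10 steps, by pin tool, on the day after seeding. Nuclei were counted after 5 days, and relative viability is the treated-to-vehicle ratio of nuclei counts. Values are medians of duplicate plates.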

Serdemetan + Bortezomib = compound: c1ccc2c(CCNc3ccc(Nc4ccncc4)cc3)c[nH]c2c1 [Serdemetan] + CC(C)C[C@H](NC(=O)[C@H](Cc1ccccc1)NC(=O)c1cnccn1)B(O)O [Bortezomib] (partner 0.002 µM)
How it was run: as §1

Serdemetan + Foretinib = compound: c1ccc2c(CCNc3ccc(Nc4ccncc4)cc3)c[nH]c2c1 [Serdemetan] + COc1cc2c(Oc3ccc(NC(=O)C4(C(=O)Nc5ccc(F)cc5)CC4)cc3F)ccnc2cc1OCCCN1CCOCC1 [Foretinib] (partner 0.25 µM)
How it was run: as §1

Serdemetan + Linsitinib = compound: c1ccc2c(CCNc3ccc(Nc4ccncc4)cc3)c[nH]c2c1 [Serdemetan] + C[C@]1(O)C[C@@H](c2nc(-c3ccc4ccc(-c5ccccc5)nc4c3)c3c(N)nccn32)C1 [Linsitinib] (partner 1 µM)
How it was run: as §1

| Cell Line | relative viability (Selisistat + Tozasertib; first compound 0.4 µM) | relative viability (Selisistat + Tozasertib; first compound 1.265 µM) | relative viability (Selisistat + Tozasertib; first compound 4 µM) | relative viability (Selisistat + Tozasertib; first compound 12.65 µM) | relative viability (Selisistat + Tozasertib; first compound 40 µM) | relative viability (Serdemetan + Bortezomib; first compound 0.04 µM) | relative viability (Serdemetan + Bortezomib; first compound 0.1265 µM) | relative viability (Serdemetan + Bortezomib; first compound 0.4 µM) | relative viability (Serdemetan + Bortezomib; first compound 1.265 µM) | relative viability (Serdemetan + Bortezomib; first compound 4 µM) | relative viability (Serdemetan + Foretinib; first compound 0.04 µM) | relative viability (Serdemetan + Foretinib; first compound 0.1265 µM) | relative viability (Serdemetan + Foretinib; first compound 0.4 µM) | relative viability (Serdemetan + Foretinib; first compound 1.265 µM) | relative viability (Serdemetan + Foretinib; first compound 4 µM) | relative viability (Serdemetan + Linsitinib; first compound 0.04 µM) | relative viability (Serdemetan + Linsitinib; first compound 0.1265 µM) | relative viability (Serdemetan + Linsitinib; first compound 0.4 µM) | relative viability (Serdemetan + Linsitinib; first compound 1.265 µM) | relative viability (Serdemetan + Linsitinib; first compound 4 µM) |
| --- | --- | --- | --- | --- | --- | --- | --- | --- | --- | --- | --- | --- | --- | --- | --- | --- | --- | --- | --- | --- |
| HCC-78 | 0.486 | 0.418 | 0.398 | 0.407 | 0.424 | 0.471 | 0.524 | 0.476 | 0.52 | 0.372 | 0.531 | 0.524 | 0.463 | 0.422 | 0.426 | 0.505 | 0.525 | 0.542 | 0.499 | 0.257 |
| HCC-366 | 0.0912 | 0.131 | 0.064 | 0.0918 | 0.0529 | 1.08 | 1.04 | 1.03 | 0.0358 | 0.0541 | 0.948 | 0.812 | 0.197 | 0.073 | 0.0559 | 0.731 | 0.317 | 0.244 | 0.0612 | 0.0456 |
| HCC-827 | 0.418 | 0.429 | 0.444 | 0.389 | 0.392 | 1.05 | 0.959 |  | 0.954 | 1.01 | 0.991 | 0.948 |  | 0.594 | 0.62 | 0.892 | 0.9 |  | 0.689 | 0.762 |
| HOP-62 | 0.362 | 0.383 | 0.464 | 0.375 | 0.372 | 1.09 | 0.928 | 0.476 | 0.47 | 0.871 | 1.04 | 1.08 | 1.1 | 0.796 | 0.693 | 1.02 | 0.934 | 0.968 | 0.738 | 0.47 |
| IA-LM |  |  |  |  |  | 0.846 | 0.854 | 0.784 | 0.535 | 0.324 | 1.04 | 1.06 | 0.877 | 0.999 | 0.414 | 0.549 | 0.679 | 0.537 | 0.394 | 0.388 |
| LC-2-ad | 0.535 |  | 0.378 | 0.433 | 0.529 | 0.921 | 0.927 | 1.04 |  | 0.912 | 0.883 | 0.943 | 0.831 | 0.748 | 0.86 | 0.908 | 0.805 | 0.857 |  | 0.722 |
| LCLC-97TM1 | 0.207 | 0.216 |  | 0.231 | 0.212 | 0.546 | 0.517 | 0.809 |  | 0.307 | 0.935 | 0.899 | 0.918 |  | 0.767 | 0.211 | 0.172 | 0.186 | 0.12 | 0.181 |
| LK-2 | 0.155 | 0.189 | 0.197 | 0.176 | 0.18 |  |  |  |  |  | 1.29 | 1.13 | 1.47 | 1.16 | 0.41 | 0.48 | 0.545 | 0.527 | 0.49 | 0.491 |
| NCI-H358 | 0.0984 | 0.1 | 0.102 | 0.092 | 0.0962 |  |  |  |  |  | 0.641 | 0.773 | 0.732 | 0.549 | 0.477 | 0.672 | 0.781 | 0.679 | 0.465 | 0.651 |
| NCI-H522 | 0.569 | 0.593 | 0.509 | 0.608 | 0.52 |  |  |  |  |  |  |  |  |  |  |  |  |  |  |  |
| NCI-H1299 |  |  |  |  |  | 0.985 | 1.01 | 0.989 | 0.887 | 0.804 | 1.05 | 1.07 | 1.02 | 0.92 | 0.755 | 0.923 | 0.999 | 0.969 | 0.777 | 0.669 |
| NCI-H1395 | 0.705 | 0.698 | 0.81 | 0.8 | 0.686 |  |  |  |  |  | 1 | 0.969 | 0.926 | 0.883 | 0.571 | 0.993 | 1.17 | 1.09 | 0.874 | 0.638 |
| NCI-H1563 |  |  |  |  |  | 0.723 | 0.925 | 0.692 | 0.742 | 0.648 | 0.82 | 0.897 | 0.745 | 0.69 | 0.64 | 1.13 | 1.03 | 0.94 | 1.06 | 0.759 |
| NCI-H1648 | 0.511 | 0.513 | 0.609 | 0.395 | 0.64 |  |  |  |  |  |  |  |  |  |  |  |  |  |  |  |
| NCI-H1650 | 0.355 | 0.301 | 0.404 | 0.34 | 0.334 | 0.196 | 0.223 | 0.188 | 0.171 | 0.188 | 1 | 1.21 | 0.989 | 1.14 | 0.658 |  |  |  |  |  |
| NCI-H1703 |  |  |  |  |  | 0.345 | 0.313 | 0.396 | 0.362 | 0.262 | 0.335 | 0.338 | 0.383 | 0.289 | 0.341 | 0.515 | 1.04 | 0.765 | 0.654 | 0.608 |
| NCI-H1792 |  |  |  |  |  | 0.953 | 0.958 | 0.936 | 0.347 | 0.726 |  |  |  |  |  | 0.565 | 0.527 | 0.557 | 0.378 | 0.231 |
| NCI-H1793 | 0.324 | 0.395 |  | 0.326 | 0.582 |  |  |  |  |  | 0.663 | 0.716 | 0.446 | 0.363 | 0.245 | 0.978 | 0.834 | 0.574 | 0.525 | 0.336 |
| NCI-H1944 | 0.273 | 0.243 |  | 0.231 | 0.256 |  |  |  |  |  | 0.832 | 0.836 | 0.828 | 0.406 | 0.392 | 1.23 | 1.17 | 1.06 |  | 0.6 |
| NCI-H2170 | 0.732 | 0.592 | 0.703 | 0.629 | 0.8 |  |  |  |  |  | 1.02 | 0.97 | 1.05 | 0.637 | 1.14 |  |  |  |  |  |
| NCI-H2342 | 0.504 | 0.502 | 0.504 | 0.502 | 0.57 |  |  |  |  |  | 1.22 | 1 | 0.882 | 0.504 | 0.592 |  |  |  |  |  |
| SK-MES-1 | 0.977 | 0.869 | 0.954 | 0.829 | 0.948 |  |  |  |  |  | 0.877 | 0.915 | 0.842 | 0.847 | 0.534 | 0.964 | 1.2 | 1.03 | 0.796 | 0.674 |
| SW 900 | 0.677 | 0.563 | 0.589 | 0.567 | 0.559 |  |  |  |  |  | 0.79 | 0.552 | 0.928 | 0.687 | 0.821 |  |  |  |  |  |
